# Data: patent US20200393345A1, “HEPARIN-BASED BLOOD SAMPLER WITHOUT PLATELET ACTIVATION” (Radiometer Medical ApS, priority 2017, published 2020)
# Entries after “also recorded” stand apart in the source; their conditions may differ. Structures can show the parent of a compound that is named as a salt.
# How the values were obtained:
# Format in all cases: cell-based
# platelets [1] = assay: Manual platelet count (single platelets, platelet aggregates) in heparinized blood with anti-platelet agents, hemocytometer; conditions: two concentration levels of drug, mixed 15 minutes; for Single platelet count compared to LiHep and PicoSAM controls / Formation of platelet aggregates compared to LiHep and PicoSAM references / Number of platelet aggregates compared to EDTA: venous whole blood in PICO70 samplers with heparin; for Single platelet count compared to EDTA reference: venous whole blood in PICO70 samplers with heparin 60 IU/mL (LiHep or PicoSAM)
# Procedure: Each experiment was conducted on a separate day with blood from one voluntary donor testing one anti-platelet drug candidate. For each experiment PICO70 syringe samplers (Radiometer Medical ApS) were prepared just before sample drawing. For “LiHep” (Liquid Heparin) conditions, PICO70 samplers were emptied of the gold ball and heparin brick and 15 μl of aqueous liquid balanced heparin comprising heparin lithium (Celsus Laboratories) and heparin sodium (Celsus Laboratories) (final heparin conc. 60 IU/mL blood) and 15 μl of the solvent of the tested drug were added. For “PicoSAM” conditions, unmodified PICO70 samplers (with gold ball and heparin brick) were used and 15 μl of the solvent of the respective tested drug was added. For “LiHep xxx drug” conditions, PICO70 samplers were emptied as described for LiHep and 15 μl of liquid balanced heparin (final heparin conc. 60 IU/mL blood) and 15 μl of the dissolved tested drug were added. For “PicoSAM xxx drug” conditions, unmodified PICO70 samplers (with gold ball and heparin brick) were used and 15 μl of the dissolved tested drug was added. […] 600 μM and 6 mM) and dipyridamole (Sigma, D9766; dissolved in 1:10 or 1:100 DMSO in saline, final conc. 10 and 100 μM). An EDTA tube (BD Vacutainer with spray-coated K2EDTA, 10 ml) and duplicate samples of all conditions of PICO70 syringe samplers were filled by drawing venous blood via a butterfly needle using a sealed VTC (vented tip cap) to fill the otherwise self-aspirating PICO70 samplers with 1.5 mL venous whole blood. Samplers were inverted 8 times immediately after drawing to insure proper anticoagulation of the samples. The blood samples were mixed gently by hand (samplers without gold ball) or on a SAM mixer (Radiometer Medical ApS) for 15 minutes after drawing the sample. Mixed samples were fixed immediately with 10% formalin solution (1:1 dilution of blood in formalin) for at least 10 minutes and further diluted 1:10 in platelet dilution solution to hemolyze red blood cells (RBCs) to assessed manual platelet count using a hemocytometer. […] Single platelet counts were adjusted for dilution with liquid heparin and or dissolved drug solution to calculate single platelet concentrations.
# platelets [2] = assay: Wet mount phase-contrast images of fixed blood samples, platelet aggregation; conditions: fixed venous blood, 40x phase-contrast; eptifibatide 20 μM added to heparin
# From the text: Venous blood samples drawn, mixed and fixed with 10% formalin solution, as described before in Example 1 were used to prepare wet mounts on a glass slide and covered with a glass coverslip. Wet mount samples of fixed blood cells were then imaged with a Leica 750 microscope using a 40× phase-contrast air objective.
# [3] = test system: WBCs (white blood cells) and platelets; assay: Wet mount images of stained and hemolyzed blood samples; conditions: for Platelets in stained wet mount images (single, aggregated, satellinism) / WBC aggregates in stained wet mount images: PicoSAM samples, 1 μM tirofiban, 20 μM eptifibatide, 100 nM iloprost
# Procedure: Venous blood samples were drawn and mixed as described before in Example 1 and used to prepare stained wet mounts images. Blood samples were mixed with a staining and hemolyzing agent (methylene blue and deoxycholic acid, respectively) and incubated at 47° C. in a water bath for 30 seconds. Stained and hemolyzed blood samples were then prepared in wet mount samples on a glass slide and covered with a glass coverslip. Images of stained samples were then acquired with a Leica 750 microscope using a 40× air objective in bright field mode. An image processing software (FIJI, ImageJ) was used to select regions of interest (ROIs) of representative stained WBCs from the images.
Compound,Single platelet count compared to LiHep and PicoSAM controls (platelets [1]),Platelet aggregates in microscopic images (platelets [2]),"Platelets in stained wet mount images (single, aggregated, satellinism) [3]",WBC aggregates in stained wet mount images [3],Single platelet count compared to EDTA reference (platelets [1]),Formation of platelet aggregates compared to LiHep and PicoSAM references (platelets [1]),Number of platelet aggregates compared to EDTA (platelets [1]),WBC aggregation in the blood sample (leukocyte activation) ([3]; statement in the description)
"OCCN(CCO)c1nc(N2CCCCC2)c2nc(N(CCO)CCO)nc(N3CCCCC3)c2n1 [Dipyridamole, dipyridamole]",slightly higher platelet number,–,–,–,–,–,–,–
"O=C(O)CN(CCN(CC(=O)O)CC(=O)O)CC(=O)O [EDTA, Ethylenediaminetetraacetic acid]",–,prevents platelet activation and maintains single platelets; also recorded: cannot be seen,same results,same results,–,–,–,–
"CC#CCC(C)[C@H](O)/C=C/[C@@H]1[C@H]2C/C(=C/CCCC(=O)O)C[C@H]2C[C@H]1O (stereo partly drawn) [Iloprost, iloprost]",–,–,"single platelets, not platelet satellinism",not platelet satellinism or WBC aggregates,comparable to standard EDTA anticoagulated blood,reduced the formation of platelet aggregates,no or few aggregates,very low WBC aggregation
N=C(N)NCCC[C@H](N)C(=O)O [L-Arginine],slightly higher platelet count,–,–,–,decreased number of platelets,–,higher number of platelet aggregates,–
O=S(=O)([O-])[O-].[Mg+2] [MgSO4],–,–,–,–,–,reduced the formation of platelet aggregates,–,–
"Clc1ccccc1CN1CCc2sccc2C1 [Ticlopidine LiHep, ticlopidine hydrochloride]",–,–,–,–,–,slightly reduced number of aggregates,–,–
"CCCCS(=O)(=O)N[C@@H](Cc1ccc(OCCCCC2CCNCC2)cc1)C(=O)O [Tirofiban, tirofiban hydrochloride monohydrate]",–,–,single platelets but also platelet satellinism,WBC aggregates were also observed,comparable to standard EDTA anticoagulated blood,reduced the formation of platelet aggregates,no or few aggregates,–
eptifibatide acetate,–,cannot be observed; also recorded: cannot be seen,single platelets but also platelet satellinism,WBC aggregates were also observed,comparable to standard EDTA anticoagulated blood,reduced the formation of platelet aggregates,no or few aggregates,–
heparin,–,allows or even potentiates platelet aggregation; also recorded: showed platelet aggregates,–,–,–,–,–,–
